In patent publication US6221865A, “Inhibitors of protein isoprenyl transferases” (priority 1998, dated 2001):
Structures can show the parent of a compound that is named as a salt.

Target: T1, protein farnesyltransferase (Rattus norvegicus, UniProt Q02293+Q04631)
T1 construct: The enzyme is purified according to Reiss, Y., et al., Cell, 62: 81-88 (1990), utilizing steps one through three; from tissue; host or cells: rat brain
Assay: Inhibition of farnesyltransferase (scintillation proximity assay, rat brain enzyme, biotin-K Ras B fragment substrate)
Format: biochemical
Details: 1 × 10^-5 M (Table 1)
Source text: The ability of the compounds of the invention to inhibit protein farnesyltransferase or protein geranylgeranyltransferase can be measured according to the method of Moores, et al., J. Biol. Chem. 266: 14603 (1991) or the method of Vogt, et al., J. Biol. Chem. 270:660-664 (1995). In addition, procedures for determination of the inhibition of farnesylation of the oncogene protein Ras are described by Goldstein, et al., J. Biol. Chem., 266:15575-15578 (1991) and by Singh in U.S. Pat. No. 5,245,061.
In addition, in vitro inhibition of protein farnesyltransferase may be measured by the following procedure. Rat brain protein farnesyltransferase activity is measured using an Amersham Life Science commercial scintillation proximity assay kit and substituting a biotin-K Ras B fragment (biotin-[…]Ble-Met-CO2 H), […] final concentration, for the biotin-lamin substrate provided by Amersham. The enzyme is purified according to Reiss, Y., et al., Cell, 62: 81-88 (1990), utilizing steps one through three.
The % inhibition of protein farnesyltransferase was determined for representative compounds of the invention.

T1 sequence (Q02293 whole entry, one chain of several): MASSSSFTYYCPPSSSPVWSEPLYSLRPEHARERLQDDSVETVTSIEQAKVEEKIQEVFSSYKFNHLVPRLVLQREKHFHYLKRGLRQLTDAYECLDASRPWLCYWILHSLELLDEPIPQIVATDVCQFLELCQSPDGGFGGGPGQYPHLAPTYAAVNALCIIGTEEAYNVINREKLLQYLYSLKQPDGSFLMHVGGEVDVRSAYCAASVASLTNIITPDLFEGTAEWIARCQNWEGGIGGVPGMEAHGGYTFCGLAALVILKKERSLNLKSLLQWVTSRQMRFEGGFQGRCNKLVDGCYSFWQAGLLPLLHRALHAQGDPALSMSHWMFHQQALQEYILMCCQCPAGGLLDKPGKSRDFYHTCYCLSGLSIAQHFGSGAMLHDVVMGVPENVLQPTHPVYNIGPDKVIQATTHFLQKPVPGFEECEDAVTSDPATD

SMILES	% inhibition of farnesyltransferase at 1 × 10^-5 M [%]
CSCC[C@H](NC(=O)c1ccc(CNCCN2CCCCC2)cc1-c1ccccc1)C(=O)O [Example 366]	83
CSCC[C@H](NC(=O)c1ccc(CNc2ccc(C(=O)c3ccccc3)cc2)cc1-c1ccccc1)C(=O)O [Example 702]	79
CCN(Cc1ccc(C(=O)N[C@@H](CCSC)C(=O)O)c(-c2ccccc2)c1)Cc1cc([N+](=O)[O-])ccc1O [Example 711]	46
CSCC[C@H](NC(=O)c1ccc(CNCCCCc2ccccc2)cc1-c1ccccc1)C(=O)O [Example 718]	40
CSCC[C@H](NC(=O)c1ccc(CNCCC2CCCCC2)cc1-c1ccccc1)C(=O)O [Example 663]	43
CSCC[C@H](NC(=O)c1ccc(CNc2ccccc2N(C)C)cc1-c1ccccc1)C(=O)O [Example 672]	48

Same assay, conditions: 1 × 10^-6 M (Table 2)

SMILES	% inhibition of farnesyltransferase at 1 × 10^-6 M [%]
CNCC(=O)Nc1ccc(C(=O)N[C@@H](CCSC)C(=O)O)c(-c2ccccc2)c1 [Example 749]	84
CSCC[C@H](NC(=O)c1ccc(CN(CC(C)C)C(CC2CCCCC2)CC2CCCCC2)cc1-c1ccccc1C)C(=O)O [Example 908]	88
CSCC[C@H](NC(=O)c1ccc(CN(Cc2ccoc2)C(C)C)cc1-c1ccccc1C)C(=O)O [Example 832]	80
CSCC[C@H](NC(=O)c1ccc(CNc2ccc(N3CCCCC3)cc2)cc1-c1ccccc1)C(=O)O [Example 697]	39
CSCC[C@H](NC(=O)c1ccc(COCc2ccc3ccccc3c2)cc1-c1ccccc1C)C(=O)[O-].[Li+] [Example 583]	98
CSCC[C@H](NC(=O)c1ccc(NC[C@@H]2CSCN2)cc1-c1ccccc1)C(=O)O.Cl [Example 166]	97
CSCCC(NC(=O)c1ccc(CNC(CO)c2ccccc2)cc1-c1ccccc1)C(=O)O (centres unmarked) [Example 657]	32
CSCC[C@H](NC(=O)c1ccc(CN(C)CCc2ccccc2)cc1-c1ccccc1C)C(=O)O [Example 516]	95
CCOC(=O)N1CCC(NCc2ccc(C(=O)N[C@@H](CCSC)C(=O)[O-])c(-c3ccccc3C)c2)CC1.[Li+] [Example 806]	72
CSCC[C@H](NC(=O)c1ccc(CNc2ccccc2Oc2ccccc2)cc1-c1ccccc1)C(=O)O [Example 645]	37
COc1ccc(CC(=O)Nc2ccc(C(=O)N[C@@H](CCSC)C(=O)O)c(-c3ccccc3C)c2)cc1 [Example 542]	67
COc1ccccc1CCC(=O)Nc1ccc(C(=O)N[C@@H](CCSC)C(=O)O)c(-c2ccccc2C)c1 [Example 544]	35
CSCC[C@H](NC(=O)c1ccc(CN(C(=O)c2ccccc2)C(CC2CCCCC2)CC2CCCCC2)cc1-c1ccccc1C)C(=O)O [Example 910]	42

Same assay, conditions: 1 × 10^-7 M (Table 3)

SMILES	% inhibition of farnesyltransferase at 1 × 10^-7 M [%]
CSCC[C@H](NC(=O)c1ccc(CN[C@H](/C=C\CC(C)C)CC2CCCCC2)cc1-c1ccccc1C)C(=O)O [Example 526]	96
CSCC[C@H](NC(=O)c1ccc(COCc2ccc(-c3ccc(Cl)cc3)o2)cc1-c1ccccc1C)C(=O)O [Example 443]	97
CSCC[C@H](NC(=O)c1ccc(COCCc2ccc(-c3ccc(F)cc3)o2)cc1-c1ccccc1C)C(=O)[O-].[Li+] [Example 535]	89
CSCC[C@H](NC(=O)c1ccc(CN(CCC2CCCCC2)S(C)(=O)=O)cc1-c1ccccc1C)C(=O)O [Example 611]	95
CCCCN(CCCC)C(=O)CN(C)Cc1ccc(C(=O)N[C@@H](CCSC)C(=O)O)c(-c2ccccc2C)c1 [Example 913]	89
CSCC[C@H](NC(=O)c1ccc(CNc2ccc(N3CCOCC3)cc2)cc1-c1ccccc1C)C(=O)O [Example 863]	72
CSCC[C@H](NC(=O)c1ccc(CNc2ccc(Oc3ccccc3)cc2)cc1-c1ccccc1C)C(=O)O [Example 864]	84
CSCC[C@H](NC(=O)c1ccc(COCc2cccc(N(C)C)c2)cc1-c1ccccc1C)C(=O)O [Example 941]	90
CSCC[C@H](NC(=O)c1ccc(COCc2ccc(-c3cccc([N+](=O)[O-])c3)o2)cc1-c1ccccc1C)C(=O)[O-].[Li+] [Example 440]	92
CSCC[C@H](NC(=O)c1ccc(COCCc2ccc(Cl)cc2)cc1-c1ccccc1C)C(=O)[O-].[Li+] [Example 590]	95
COc1cccc(-c2ccc(COCc3ccc(C(=O)N[C@@H](CCSC)C(=O)[O-])c(-c4ccccc4C)c3)o2)c1.[Li+] [Example 442]	88
CSCC[C@H](NC(=O)c1ccc(COCCC2CCCCC2)cc1-c1ccccc1C)C(=O)[O-].[Li+] [Example 594]	95
CSCC[C@H](NC(=O)c1ccc(CSc2ccc(C)cc2C)cc1-c1ccccc1C)C(=O)O [Example 741]	89

Same assay, conditions: 1 × 10^-8 M (Table 4)

SMILES	% inhibition of farnesyltransferase at 1 × 10^-8 M [%]
CSCC[C@H](NC(=O)c1ccc(CO[C@@H](CC2CCCCC2)CN2CCOCC2)cc1-c1ccccc1C)C(=O)O [Example 885]	95
C=C[C@H](CC1CCCCC1)NCc1ccc(C(=O)N[C@@H](CCSC)C(=O)O)c(-c2ccccc2C)c1 [Example 619]	95
CSCC[C@H](NC(=O)c1ccc(CN(Cc2cncs2)S(=O)(=O)c2ccc(C)cc2)cc1-c1ccccc1C)C(=O)O [Example 877]	68
CCSC[C@H](CCc1ccccc1)NCc1ccc(C(=O)N[C@@H](CCSC)C(=O)O)c(-c2ccccc2C)c1 [Example 995]	92

Same assay, conditions: Table 6, * = 0.1 μM (footnote); title prints 0.1 mM

SMILES	% inhibition at 0.1 μM (*) [%]
CCC(=O)N(CCCc1ccc(C(=O)N[C@@H](CCSC)C(=O)O)c(-c2ccccc2C)c1)C1CCCCC1 [Example 1145]	83

Same assay, conditions: read-out: % inhibition at 0.1 μM (*); Table 6, * = 0.1 μM (footnote); title prints 0.1 mM

SMILES	inhibition at 0.1 µM [%]
CCSCC(CCC1CCCCC1)Cc1ccc(C(=O)N[C@@H](CCSC)C(=O)O)c(-c2ccccc2C)c1 (some centres unmarked) [Example 1300, N-[4-(2-(2-Cyclohexylethyl)-1-ethylthioprop-3-yl)-2-(2-methylphenyl)benzoyl]methionine Lithium Salt]	97
CSCC[C@H](NC(=O)c1ccc(CN2CC(F)(F)C[C@H]2COCC2CCCCC2)cc1-c1ccccc1C)C(=O)O [Example 1117, N-[4-(2(S)-cyclohexylmethyloxymethyl-4,4-difluoropyrrolidin-1-ylmethyl)-2-(2-methylphenyl)benzoyl]methionine]	92
COC1CC(COCC2CCCCC2)N(Cc2ccc(C(=O)NC(CCSC)C(=O)O)c(-c3ccccc3C)c2)C1 [Example 1123, N-[4-(2(S)-cyclohexylmethoxymethyl-4(R-methoxypyrrolidin-1-ylmethyl)-2-(2-methylphenyl)benzoyl]methionine]	90

Same assay, conditions: read-out: % inhibition of farnesyltransferase at 1 × 10^-6 M; 1 × 10^-6 M (Table 2)

SMILES	inhibition at 1 µM [%]
CSCC[C@H](NC(=O)c1ccc(CN(C(C)C)C2(Cc3ccccc3)CC2)cc1-c1ccccc1C)C(=O)O [Example 325]	99
Cc1ccccc1-c1cc(CN(C(C)C)C(C)(C)CC2CCCCC2)ccc1C(=O)N[C@@H](CCS(C)(=O)=O)C(=O)O [Example 322]	98
CSCC[C@H](NC(=O)c1ccc(CN(C2CC2)C(C)(C)Cc2ccccc2)cc1-c1ccccc1C)C(=O)O [Example 315]	93
Cc1ccccc1-c1cc(CN(C2CC2)C2(CC3CCCCC3)CCC2)ccc1C(=O)N[C@@H](CCS(C)(=O)=O)C(=O)O [Example 334]	93
CSCC[C@H](NC(=O)c1ccc(CN(C(C)C)C(C)(C)CC2CCCCC2)cc1-c1ccccc1C)C(=O)O [Example 318]	98
CSCC[C@H](NC(=O)c1ccc(CNC(C)(C)Cc2ccccc2)cc1-c1ccccc1C)C(=O)O [Example 307]	82
CSCC[C@H](NC(=O)c1ccc(CN(C2CC2)C2(CC3CCCCC3)CC2)cc1-c1ccccc1C)C(=O)O [Example 324]	98

Same assay, conditions: read-out: % inhibition of farnesyltransferase at 1 × 10^-7 M; 1 × 10^-7 M (Table 3)

SMILES	inhibition at 0.1 µM [%]
CSCC[C@H](NC(=O)c1ccc(C#Cc2cncnc2)cc1-c1ccccc1C)C(=O)O [Example 493, N-[4-(2-pyrimidin-5-ylethynyl)-2-(2-methylphenyl)benzoyl]methionine lithium salt]	51
CSCC[C@H](NC(=O)c1ccc(CCc2ccccc2Cc2ccccc2)cc1-c1ccccc1C)C(=O)O [Example 458, lithium salt]	87
CSCC[C@H](NC(=O)c1ccc(CCc2ccc(Oc3ccccc3Cl)cc2)cc1-c1ccccc1C)C(=O)O [Example 855, N-[4-(2-(4-(2-chlorophenoxy)phenyl)ethyl)-2-(2-methylphenyl)benzoyl]methionine]	92
